Measured values as given in patent US8252835B2, “Compounds and methods for treating estrogen receptor-related diseases” (Shenogen Pharma Group Ltd., priority 2006, dated 2012).

Experiments:
H226 Lung Cancer Cells = assay: H226 lung cancer surviving cell count; type: cell-based; settings: two weeks, FIG. 10
MCF7 cells [1] = assay: MCF7 colony formation; type: cell-based; settings: zero to 25 μM, as concentration rose, 10 days, FIG. 5a
[2] = tested on: MDA-MB-231 cell xenografts; assay: MDA-MB-231 xenografts in nude mice, established tumors; type: in vivo; settings: 5 mg per mouse by gavage every other day for 30 days, FIG. 11
Method: (§1) The vial was wrapped with aluminium foil and placed on a rocker at 37° C. for several hours. […] The Icaritin solution was administered to mice using the gavage technique. For gavaging, we used Animal Feeding Needles (Popper; cat No. 9921, size: 20GX1.1/2).
(§2) Tumor formation was assayed in female athymic nude mice (6 weeks old, strain CDI nu/nu, Charles River Breeding Laboratory). MCF7 cells or MDA-MB-231 cells at the concentration of 1×10^7 cells in 200 μl Matrigel (BD Biosciences) were injected into the mice by the mammary fatpad injection. A group of 5 mice were injected with each type of breast cancer cells. […] Tumor disappearance was determined by palpation, and the sizes of tumors were also monitored by measuring two perpendicular diameters with vernier calipers every other day and photographed.

[3] = tested on: MDA-MB-231 cell xenografts; assay: MDA-MB-231 xenografts in nude mice, treatment right after implantation; type: in vivo; settings: 1 mg per mouse twice a week for 36 days, started right after injection, FIG. 13
Method: Tumor formation was assayed in female athymic nude mice (6 weeks old, strain CDI nu/nu, Charles River Breeding Laboratory). MDA-MB-231 cells at the concentration of 1×10^7 cells in 200 μl Matrigel (BD Biosciences) were injected into the mice by the mammary fatpad injection. A group of 5 mice were injected with the breast cancer cells. The mice were treated with Icaritin right after the injection. […] Then the mice were sacrificed and the tumor tissues were dissected from the mice, photographed and weighed.

PC3 cells = assay: PC3 prostate cancer surviving cell count; type: cell-based; settings: two weeks, FIG. 10
MDA-MB-231 cells [4] = assay: MDA-MB-231 colony formation, crystal violet staining; type: cell-based; settings: 10 days, FIG. 4
[5] = tested on: human endometrial cancer Hec1A cells; assay: MTT assay of Hec1A cell growth; type: cell-based; settings: 24 hours
Method: Human endometrial cancer Hec1A cells (ATCC No.: HTB-112™) were subseeded in a 96-well culture plate at a concentration of 5×10^3 cells/well and were cultured in DMEM containing high glucose medium (HyClone, SH30022.01B). […] The cells then were incubated with 0.5 mg/ml 3-(4,5-dimethylthiazol-2-yl)-2,5-diphenyltetrazolium bromide (MTT) for 4 hours at 37° C. wherein the MTT was reduced to insoluble purple formazan by the active mitochondrial reductase enzymes in the living cells. Then the excessive liquid MTT was removed from the reaction mixture. 150 μl of DMSO was added to dissolve the purple formazan into a colored solution. The optical density of the colored solution was measured at 490 nm using a microplate reader.

LnCap cells = assay: LNCap prostate cancer surviving cell count; type: cell-based; settings: two weeks, FIG. 10
MDA-MB-231 cells [6] = assay: MDA-MB-231 cells treated for a week, examined under microscope; type: cell-based; settings: 10 μM, one week, FIG. 3
[7] = tested on: human breast cancer BCAP-37 cells xenografts; assay: Human breast cancer BCAP-37 xenografts in nude mice; type: in vivo, BALB/c-nu mice; settings: 15 days, FIG. 14a
Text: The original nude mice bearing BCAP-37 breast cancer were provided by the Institute of Materia Medica, Chinese Academy of Medical Sciences. Tumor tissues were taken from the mice and cut into small pieces. Several pieces of the tumor tissues were implanted into the armpit under the right front limb of female nude mice (provided by the Division of Experimental Animals of the Medical School of Beijing University). […] Starting on the seventh day, the mice were fed with Icaritin at three dosages. The high dosage was 0.7 mg per mouse per day (about 33 mg/kg/day). The medium dosage was 0.35 mg per mouse per day (about 16.5 mg/kg/day). The low dosage was 0.18 mg per mouse per day (about 8.25 mg/kg/day). […] Olive oil was used as a negative control wherein each mouse was fed with 0.1 ml of olive oil. […] Then the mice were sacrificed and the tumor tissues were dissected from the mice and weighed. Two parallel experiments were done for the tests. Ten female BALB/c-nu mice were used for each test compounds and each dosages for one of the two parallel experiment. Eight female BALB/c-nu mice were used for each test compounds and each dosages for the other parallel experiment. […] The effect of IC 163 on inhibiting breast cancer growth was tested in the same assay as described above. IC 163 was tested at the dosage of 0.7 mg per mouse per day (about 35 mg/kg/day). […] Olive oil was used as a negative control.

MCF7 cell xenografts = assay: MCF7 xenografts in nude mice, established tumors; type: in vivo; settings: 5 mg per mouse by gavage every other day for 15 days, FIG. 12
Method: as §1, §2

breast cancer cells = settings: background, literature (Liu 2005; Wang 2004; Ye 2005); cited from earlier work
[8] = tested on: Tamoxifen resistant MCF7 cells (MCF7/TAM); assay: Surviving cell count, Tamoxifen resistant MCF7 cells; settings: two weeks, FIG. 6
[9] = tested on: cervical cancer U14 cells; assay: Murine cervical cancer U14 tumors in ICR mice; type: in vivo; settings: 14 days, FIG. 15a
Method: The original ICR mice containing cervical cancer U14 cell line were provided by the Institute of Materia Medica, Chinese Academy of Medical Sciences. Five ml of abdominal fluid was drawn from the lower abdomen of the mice. The fluid was diluted at the ratio of 1:5 with saline. 0.2 ml of the diluted abdominal fluid was injected subcutaneously at the right front limb and chest of female ICR mice (provided by the Division of Experimental Animals of the Medical School of Beijing University). After the implantation, the mice were treated right away with Icaritin, Tamoxifen and olive oil, respectively. Icaritin was given at three dosages. The high dosage was 0.7 mg per mouse per day (about 33 mg/kg/day). The medium dosage was 0.35 mg per mouse per day (about 16.5 mg/kg/day). The low dosage was 0.18 mg per mouse per day (about 8.25 mg/kg/day). […] Olive oil was used as a negative control wherein each mouse was fed with 0.1 ml of olive oil. […] Then the mice were sacrificed and the tumor tissues were dissected from the mice and weighed. Ten female ICR mice were used for each test compounds and dosages. Three parallel experiments were carried out. […] The tumor growth inhibition rate was calculated using the same formula as Example 11.

[10] = tested on: MCF7 cells over-expressing ER-α36 (MCF7/ER36); assay: Surviving cell count, MCF7 cells over-expressing ER-α36; type: cell-based; settings: two weeks, FIG. 6
Text: MCF7 cells over-expressing ER-α36 were made by stably transfecting MCF cells with an ER-α36 expression vector. The ER-α36 expression vector was constructed by cloning a 1.1-kb cDNA fragment of ER-α36 from pBluescript plasmid into a mammalian expression vector pCB6+ as described before (Wang et al., 2005, BBRC, 336:1023-1027). The constructed ER-α36 expression vector contains the cytomegalovirus (CMV) early promoter. MCF7 cells were transfected with the ER-α36 expression vector using the FuGene6 transfection reagent (Roche Molecular Biochemicals). Forty-eight hours after transfection, the cells were re-plated and selected with 500 μg/ml of G418 (Invitrogen) for about two weeks until colonies appeared. The clones were then pooled and cultured to confirm the expression of ER-α36 by Western blot analysis.

MCF7 cells [11] = assay: MCF7 surviving cell count (hemocytometer); settings: two weeks
[12] = high dosage 0.7 mg per mouse per day
[13] = low dosage 0.18 mg per mouse per day
[14] = medium dosage 0.35 mg per mouse per day

In the case of COc1ccc(-c2oc3c(CC=C(C)C)c(O)cc(O)c3c(=O)c2O)cc1 [Icaritin], the numbers of cells (H226 Lung Cancer Cells; 5 μM) was “decreased”, the numbers of cells (H226 Lung Cancer Cells; 10 μM) was “further reduced” and the “number of colonies of MCF7 cells” value (MCF7 cells [1]) was “significantly reduced”. For the same molecule, the tumor size [2] was “significant tumor size reduction”, the tumor size [3] was “tumor size reduction” and the numbers of cells (PC3 cells; 5 μM) was “decreased”. The numbers of cells (PC3 cells; 10 μM) was “further reduced”, the “numbers of colonies of MDA-MB-231 cells” value (MDA-MB-231 cells [4]; 5 μM) was “decreased” and the “numbers of colonies of MDA-MB-231 cells” value (MDA-MB-231 cells [4]; 10 μM) was “reduced to near zero”. The “effect on the growth of Hec1A cells” value ([5]; 0 to 5 μM) was “significant inhibitory effect”, the “optical density at 490 nm (MTT)” value ([5]; increased concentrations 0 to 5 μM, FIG. 21) was “declined smoothly” and the numbers of cells (LnCap cells; 5 μM) was “decreased”. For the same molecule, the numbers of cells (LnCap cells; 10 μM) was “further reduced”, the cell morphology (MDA-MB-231 cells [6]) was “features characteristic of apoptotic cells” and the “number of surviving cells” value (MDA-MB-231 cells [6]) was “dramatically reduced”. For the same molecule, the “tumor weight compared with negative controls” value [7, 12] was “reduced tumor weights”, the “tumor weight compared with negative controls” value [7, 13] was “reduced tumor weights” and the “tumor weight compared with negative controls” value [7, 14] was “reduced tumor weights”. For the same molecule, the tumor size (MCF7 cell xenografts) was “significant tumor size reduction”, the “proliferation of breast cancer cells” value (breast cancer cells) was “significantly increase” and the “growth of cells (numbers of survived cells)” value (from here on “growth of cells”) ([8]; 5 μM) was “significantly inhibited”. The “inhibition compared with MCF7 cells” value ([8]; 5 μM) was “stronger”, the numbers of cells ([8]; 10 μM) was “near zero” and the “tumor weight compared with negative control” value [9, 12] was “reduced tumor weights”. For the same molecule, the “tumor weight compared with negative control” value [9, 13] was “reduced tumor weights”, the “tumor weight compared with negative control” value [9, 14] was “reduced tumor weights” and the “growth of cells” value ([10]; 5 μM) was “significantly inhibited”. For the same molecule, the “inhibition compared with MCF7 cells” value ([10]; 5 μM) was “stronger”, the numbers of cells ([10]; 10 μM) was “near zero” and the “numbers of surviving MCF7 cells” value (MCF7 cells [11]; 5 μM and up, FIG. 5b) was “significantly reduced”. The “growth of cells” value (MCF7 cells [11]; 5 μM, FIG. 6) was “significantly inhibited” and the numbers of cells (MCF7 cells [11]; 10 μM, FIG. 6) was “near zero”.
